Legend:
dopamine β-hydroxylase = details: cited from earlier work
[1] = cited from earlier work
[2] = tested on: Streptomyces sp. isolates 275 and 124; assay: Streptomycin susceptibility; assay type: cell-based, Streptomyces albovinaceous
From the text: Streptomyces sp. isolates 124 and 275 were characterized by the methods developed by collaborators of the International Streptomyces Project for the identification of Streptomyces species (1, 7, 8, 10-14). Identification was made by using Nonomura's classification key (7) and Bergey's Manual of Determinative Bacteriology (1). The color of mature aerial mycelia was observed on OMA, potato dextrose agar, and Pridham and Gottlieb's basal agar with glucose (8). The colony color on the reverse side of the plate was observed on potato dextrose agar, OMA, and tyrosine-casein-nitrate agar. Color standards and color nomenclature were used to describe the colony color. The production of melanoid pigments was examined on peptone-iron agar, tyrosine agar, and tryptone-yeast extract broth. Carbon utilization by the organism was studied on Pridham and Gottlieb's basal agar with various carbon sources added (8).

[3] = tested on: Fusobacterium necrophorum; details: cited from earlier work
[4] = tested on: Bacillus subtilis and Saccharomyces cerevisiae; assay: antimicrobial activity, paper disk agar diffusion bioassay; assay type: cell-based

[C-]#[N+]C(C(=O)OCC(O)C(O)C(O)C(O)COC(=O)C([N+]#[C-])=C(C)C)=C(C)C (stereo not drawn) [A32390A]
inhibitor of dopamine β-hydroxylase (dopamine β-hydroxylase): inhibitor | antimicrobial [1]: antimicrobial compound

[H]/N=C(/N)N[C@H]1[C@H](O)[C@@H](O)[C@H](O[C@@H]2O[C@@H](C)[C@](O)(C=O)[C@H]2O[C@@H]2O[C@@H](CO)[C@H](O)[C@@H](O)[C@@H]2NC)[C@@H](N/C(N)=N\[H])[C@@H]1O [Streptomycin]
Streptomycin susceptibility ([2]; 10 μg/ml): not | Streptomycin susceptibility ([2]; 50 μg/ml): Inhibited

CC[C@H]1OC(=O)[C@H](C)[C@@H](O[C@H]2C[C@@](C)(OC)[C@@H](O)[C@H](C)O2)[C@H](C)[C@@H](O[C@@H]2O[C@H](C)C[C@H](N(C)C)[C@H]2O)[C@](C)(O)C[C@@H](C)C(=O)[C@H](C)[C@@H](O)[C@]1(C)O [erythromycin]
resistance of Fusobacterium necrophorum [3]: high levels of resistance

C[C@@H]1C[C@H](C)C[C@H](C)[C@@H](O)CC(=O)O[C@H]([C@@H]2CCC[C@H]2C(=O)O)C/C=C/C=C(/CN)[C@H](O)[C@@H](C)C1 [primary amine]
antimicrobial activity [4]: no antimicrobial activity

Source: patent publication US4759928A, “Antibiotic: Treponemycin” (Washington State University Research Foundation, priority 1986, dated 1988)
